This note sets out measurements from patent US20250041245A1, “ENDOXIFEN FOR TREATMENT OF CANCERS” (Atossa Therapeutics, Inc., priority 2021, published 2025).

Several values for one entry are separate records, joined by “and”; a condition that tells them apart may be missing. Identical values can stand only once. Entries after “also recorded” stand apart in the source; their conditions may differ.

Assay type in all cases: cell-based, human
In experiment [1] the test system is patient-derived tumor organoids (PDTOs), colorectal cancer. As to the kind of experiment: Endoxifen screen in PDTOs: colorectal cancer. Further details: key to Personalization Category: Personalization categories range from High, Good, Moderate, Low, to None; Personalization categories range from High, Good, Moderate, Low, to None; Personalization categories range from High, Good, Moderate, Low, to None; Personalization categories range from High, Good, Moderate, Low, to None; Personalization categories range from High, Good, Moderate, Low, to None; key to Sensitivity Category: Sensitivity categories range from High, Good, Moderate, Low, to None; Sensitivity categories range from High, Good, Moderate, Low, to None; Sensitivity categories range from High, Good, Moderate, Low, to None; Sensitivity categories range from High, Good, Moderate, Low, to None; Sensitivity categories range from High, Good, Moderate, Low, to None; AUC: unit not given beside the values. As to conditions: each line one patient sample. The procedure: (§1) This example describes screening endoxifen in patient-derived tumor organoids. Endoxifen was tested as a single agent on tumor organoids derived from patients diagnosed with various cancer types using a personalized cancer treatment screening assay (PARIS© Test, SEngine Precision Medicine). The screen utilized patient-derived tumor organoids (PDTOs) along with high-throughput drug screening and machine learning-guided data analysis to quantify the efficacy of endoxifen against samples derived from individual patients diagnosed with various cancer types. PDTOs are self-organizing, three-dimensional organoid structures that recapitulate structural, functional, and genomic aspects of in vivo organs. The PDTOs were grown in culture from patient tumor biopsy samples.
(§2) Fresh patient biopsy samples received following surgery were cleaned and purified. Immune cells (e.g., lymphocytes, blood cells), cancer-associated fibroblasts, and other non-tumor cells were removed to establish pure PDTOs for endoxifen testing. The tumor organoids were grown and expanded by supplying organ- and patient-specific growth factors and nutrients. The PDTOs were treated with increasing concentrations of endoxifen ranging from about 30 nM to about 10 μM, and the drug response was measured using a luminescence readout. A lower luminescence was indicative of a stronger drug response.
(§3) The results were analyzed using a “SEngine Precision Medicine” (SPM) scoring system to assess the sensitivity and personalization of each tumor organoid to endoxifen. The SPM score correlates with clinical outcomes, such that a higher SPM score for a specific PDTO-drug combination predicts a more favorable clinical outcome following treatment of the corresponding patient with the tested drug.
(§4) This example describes testing endoxifen efficacy against 17 distinct cancer types in patient-derived tumor organoids (PDTOs). Screening of PDTOs was performed as described in EXAMPLE 1. For each PDTO sample, the drug response was measured using a luminescent readout over a range of endoxifen concentrations. The drug response was evaluated based on the area under the fitted dose response curve (AUC) and the SPM scoring system. AUC values were normalized for each PDTO. Briefly, data points at each drug concentration were first normalized to a negative control, then a dose response drug curve was approximated using a four-parameter logistic model fitted to the normalized data points. The area under the curve was calculated from the normalized curve. Normalization allowed for comparison of AUC values between patient samples. The SPM scores were based on machine learning models that incorporate values for how well the drug kill patient cells (sensitivity metric), the relative drug responses of a patient to all other patients in a sample database (personalization metric), and knowledge of clinical outcomes for patients that had been evaluated with the personalized cancer screening assay (PARIS® Test, SEngine Precision Medicine).
(§5) The SPM scoring system evaluated whether a PDTO was unresponsive or responsive to endoxifen and the degree of drug response for PDTOs that were responsive to endoxifen. The SPM scoring system generated metrics an SPM score, predictive of clinical outcome, overall drug response (response category), drug sensitivity (sensitivity category), and drug personalization (personalization category). SPM scores ranged from 1-15, corresponding to the following drug response categories: no response (SPM 1-8), low response (SPM 9), moderate response (SPM 10-11), good response (SPM 12-13), and exceptional response (SPM 14-15). […] Moderate to good drug responses (SPM 10-13) may indicate that a drug has clinical relevance, possibly in combination with other drugs. The sensitivity category was determined from the sensitivity metric and is a measure of overall cell death of a patient's cells in response to endoxifen at six concentrations. […]

Experiment [2] relates to patient-derived tumor organoids (PDTOs), gastric cancer. As to the kind of experiment: Endoxifen screen in PDTOs: gastric cancer. More on the design: key to Personalization Category: Personalization categories range from High, Good, Moderate, Low, to None; Personalization categories range from High, Good, Moderate, Low, to None; Personalization categories range from High, Good, Moderate, Low, to None; Personalization categories range from High, Good, Moderate, Low, to None; Personalization categories range from High, Good, Moderate, Low, to None; key to Sensitivity Category: Sensitivity categories range from High, Good, Moderate, Low, to None; Sensitivity categories range from High, Good, Moderate, Low, to None; Sensitivity categories range from High, Good, Moderate, Low, to None; Sensitivity categories range from High, Good, Moderate, Low, to None; Sensitivity categories range from High, Good, Moderate, Low, to None; AUC: unit not given beside the values. To be noted: each line one patient sample. The procedure: as §1, §2, §3, §4, §5

For experiment [3], the system named is patient-derived tumor organoids (PDTOs), myxofibrosarcoma. As to the kind of experiment: Endoxifen screen in PDTOs: myxofibrosarcoma. Further details: key to Personalization Category: Personalization categories range from High, Good, Moderate, Low, to None; Personalization categories range from High, Good, Moderate, Low, to None; Personalization categories range from High, Good, Moderate, Low, to None; Personalization categories range from High, Good, Moderate, Low, to None; Personalization categories range from High, Good, Moderate, Low, to None; key to Sensitivity Category: Sensitivity categories range from High, Good, Moderate, Low, to None; Sensitivity categories range from High, Good, Moderate, Low, to None; Sensitivity categories range from High, Good, Moderate, Low, to None; Sensitivity categories range from High, Good, Moderate, Low, to None; Sensitivity categories range from High, Good, Moderate, Low, to None; AUC: unit not given beside the values. As to the method:
as §1, §2, §3, §4
The SPM scoring system evaluated whether a PDTO was unresponsive or responsive to endoxifen and the degree of drug response for PDTOs that were responsive to endoxifen. […] The sensitivity category was determined from the sensitivity metric and is a measure of overall cell death of a patient's cells in response to endoxifen at six concentrations. […]

Experiment [4] relates to patient-derived tumor organoids (PDTOs), ovarian cancer. In words: Endoxifen screen in PDTOs: ovarian cancer. More on the design: AUC: unit not given beside the values. To be noted: each line one patient sample. The procedure: as §1
Fresh patient biopsy samples received following surgery were cleaned and purified. Immune cells (e.g., lymphocytes, blood cells), cancer-associated fibroblasts, and other non-tumor cells were removed to establish pure PDTOs for endoxifen testing. […] The PDTOs were treated with increasing concentrations of endoxifen ranging from about 30 nM to about 10 μM, and the drug response was measured using a luminescence readout. A lower luminescence was indicative of a stronger drug response.
The results were analyzed using a “SEngine Precision Medicine” (SPM) scoring system to assess the sensitivity and personalization of each tumor organoid to endoxifen. […]
This example describes testing endoxifen efficacy against 17 distinct cancer types in patient-derived tumor organoids (PDTOs). […] For each PDTO sample, the drug response was measured using a luminescent readout over a range of endoxifen concentrations. The drug response was evaluated based on the area under the fitted dose response curve (AUC) and the SPM scoring system. […] The area under the curve was calculated from the normalized curve. […]
The SPM scoring system evaluated whether a PDTO was unresponsive or responsive to endoxifen and the degree of drug response for PDTOs that were responsive to endoxifen. […]

Where [5] appears, read: normalized area under fitted dose response curve.

As to `CC/C(=C(\c1ccc(O)cc1)c1ccc(OCCNC)cc1)c1ccccc1` [Endoxifen, 4-hydroxy-N-desmethyltamoxifen], the “Personalization Category” value in experiment [1] is “None and Low and Good and Moderate”; in experiment [2], “None and Low and High”; in experiment [3] (patient 1), “None”. Further, the entries for the “Response Category” value in experiment [1] and in experiment [2] were “None (no response (SPM 1-8)); also recorded: Low (low response (SPM 9)); also recorded: Moderate (moderate response (SPM 10-11))” and “None (no response (SPM 1-8)); also recorded: Low (low response (SPM 9)); also recorded: Good (good response (SPM 12-13)); also recorded: Moderate (moderate response (SPM 10-11))”, respectively. In addition, the “Sensitivity Category” value in experiment [1] is “None and Low”; in experiment [2] it was “Low and Moderate”; in experiment [3] (patient 1) it was “None”. Moreover, the IC50 in experiment [1] (four-parameter logistic fit) was 7.16 µM and 9.23 µM and 7.23 µM and 5.61 µM and 10 µM and 5.65 µM and 4.72 µM and 3.62 µM and 8.86 µM and 5.67 µM and 6.74 µM and 9.61 µM and 9.09 µM; in experiment [2] (four-parameter logistic fit), 6.55 µM and 6.73 µM and 2.45 µM and 4.14 µM and 2.89 µM and 4.86 µM; in experiment [3] (Homo sapiens, patient 1, four-parameter logistic fit) it was 7.25 µM; in experiment [4] (four-parameter logistic fit), 9.26 µM and 8.13 µM and 6.7 µM and 4.87 µM and 7.26 µM and 9.3 µM and 3.08 µM and 6.91 µM and 9.33 µM and 3.45 µM and 9.41 µM and 6.22 µM and 9.47 µM and 6.17 µM and 7.21 µM and 6.13 µM and 4.14 µM and 6.06 µM and 3.59 µM and 5.48 µM and 3.69 µM and 4.28 µM and 9.16 µM. The AUC was 0.9517 and 0.9919 and 1.0338 and 0.9902 and 1.0377 and 0.9305 and 0.8841 and 0.8215 and 0.9346 and 0.8357 and 0.8866 and 0.9755 and 0.9804 and 0.9752 and 1.0467 in experiment [1] (setting [5]); 0.9503 and 0.8641 and 0.7529 and 0.8116 and 0.6723 and 0.8547 in experiment [2] (setting [5]); 0.9384 in experiment [3] (patient 1, normalized area under fitted dose response curve); 0.9109 and 1.0762 and 0.8038 and 0.9291 and 0.9081 and 0.9209 and 1.0105 and 0.8454 and 0.8909 and 0.9267 and 0.9074 and 0.8343 and 0.9838 and 0.8320 and 1.0057 and 0.9637 and 1.1417 and 1.0287 and 0.8785 and 0.8853 and 0.9968 and 0.9220 and 0.8174 and 0.9760 and 0.8739 and 0.8607 and 1.0172 and 0.9895 and 0.9934 in experiment [4] (setting [5]). In addition, the “SPM Score” value in experiment [1] (score range 1-15) was 1 (9×) and 3 and 5 and 9 (2×) and 11 and 10; in experiment [2] (score range 1-15) it was 5 and 9 and 12 and 11 and 13 and 10; in experiment [3] (patient 1, score range 1-15), 1; in experiment [4] (score range 1-15), 1 (15×) and 11 (2×) and 5 (3×) and 9 (6×) and 10 (2×) and 4.
